Some results are limits rather than exact numbers.

The target in this experiment is T1, Human TREX1 enzyme (amino acids 1-242) (Homo sapiens, UniProt Q9NSU2).
T1 construct: Human TREX1 enzyme (amino acids 1-242)
T1 sequence (Q9NSU2 1-242): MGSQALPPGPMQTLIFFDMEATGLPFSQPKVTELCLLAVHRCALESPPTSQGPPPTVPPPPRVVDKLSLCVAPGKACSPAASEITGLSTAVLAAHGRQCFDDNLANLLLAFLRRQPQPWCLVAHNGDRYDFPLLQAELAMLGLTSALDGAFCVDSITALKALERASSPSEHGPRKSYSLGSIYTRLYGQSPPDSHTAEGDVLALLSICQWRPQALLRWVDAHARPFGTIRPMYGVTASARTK
In words: Human TREX1 enzymatic assay with dsDNA native oligonucleotide (Picogreen fluorescence). Format: biochemical. The settings on record: 2 mM dithiothreitol in assay buffer; 50 nM dsDNA oligonucleotide; 30 min preincubation at 25° C.; read-out: TREX1/Human + DTT IC50 AVG. As to the method:
Example A. Human TREX1 Enzymatic Assay with dsDNA Native Oligonucleotide
Human TREX1 enzyme (amino acids 1-242) was diluted in assay buffer (20 mM Tris pH 7.7, 5 mM MgCl2, 0.01% human serum albumin, 0.01% Brij™-35, 2 mM dithiothreitol) to a final concentration of 0.8 nM to 0.16 nM and added to a 96-well low-binding polypropylene plate. Test compounds were diluted in DMSO to 50× concentration (final DMSO concentration in reaction mixture of 2%) and added to the wells with a concentration ranging from 300 μM to 13 nM or 30 μM to 1.5 nM. The reaction mixtures were incubated for 30 minutes at 25° C. and a solution of annealed dsDNA oligonucleotide (5′-[…]-3′ and Comp: 5′-[…]-3′) was added to a final concentration of 50 nM. The reaction mixtures were incubated at 25° C. for 5-15 minutes and subsequently quenched by transferring part of the assay reaction to a solution of 100 mM ethylenediaminetetraacetic acid and 1:100 Picogreen™ (final concentration of […]) in a black plate with an opaque bottom. The fluorescence ([…]) was measured using a Molecular Devices SpectraMax plate reader. Wells containing oligonucleotide but no TREX1 enzyme were used as negative controls. Wells containing oligonucleotide, TREX1 enzyme, and DMSO were used as positive controls.
For the compound `COc1cc(-c2nc3ccccc3n2C2CN(S(C)(=O)=O)C2)c(C)c(O)c1O` [Example 322], the IC50 lay in the range of 10 to 100 µM. For `COc1cc(-c2nc3ccc(C(=O)Nc4ccncc4)cc3n2C2(C)COC2)c(F)c(O)c1O` [Example 248, 2-(2-fluoro-3,4-dihydroxy-5-methoxyphenyl)-1-(3-methyloxetan-3-yl)-N-(pyridin-4-yl)-1H-1,3-benzodiazole-6-carboxamide] the value was not above 0.1 µM; for `COc1cc(-c2nc3cc(N4CCN(C(=O)c5ccc(C(C)(C)C)cc5)CC4)ccc3[nH]2)cc(O)c1O` [Example 126, (4-(tert-butyl)phenyl)(4-(2-(3,4-dihydroxy-5-methoxyphenyl)-1H-benzo[d]imidazol-5-yl)piperazin-1-yl)methanone], more than 100 µM; for `COc1cc(-c2nc3cc(N4CCN(C(C)C)CC4)ccc3[nH]2)cc(O)c1O` [Example 72, 5-(5-(4-isopropylpiperazin-1-yl)-1H-benzo[d]imidazol-2-yl)-3-methoxybenzene-1,2-diol], 10 to 100 µM. For `COc1cc(-c2nc3ccc(N4CCC4)cc3n2C2CCOC2)cc(C(=O)O)c1O` (stereo not shown) [Example 166, 5-(6-(azetidin-1-yl)-1-(tetrahydrofuran-3-yl)-1H-benzo[d]imidazol-2-yl)-2-hydroxy-3-methoxybenzoic acid] the value was 10 to 100 µM. Take `COc1cc(-c2nc3cc(N4CCN(C(=O)CCCC[C@@H]5SC[C@@H]6NC(=O)N[C@@H]65)CC4)ccc3[nH]2)cc(O)c1O` [Example 23, (3aS,4S,6aR)-4-(5-(4-(2-(3,4-dihydroxy-5-methoxyphenyl)-1H-benzo[d]imidazol-5-yl)piperazin-1-yl)-5-oxopentyl)tetrahydro-1H-thieno[3,4-d]imidazol-2(3H)-one]: the IC50 lay in the range of 1 to 10 µM. `COc1cc(-c2nc3cc(N4CCN(C)C4=O)ccc3n2C2(C)COC2)c(F)c(O)c1O` [Example 197, 1-(2-(2-fluoro-3,4-dihydroxy-5-methoxyphenyl)-1-(3-methyloxetan-3-yl)-1H-benzo[d]imidazol-5-yl)-3-methylimidazolidin-2-one]: the IC50 lay in the range of 0.1 to 1 µM.

For the compound `COc1cc(-c2nc3ccc(S(=O)(=O)N(C)C)cc3n2C2(C)COC2)c(F)c(O)c1O` [Example 228, 2-(2-fluoro-3,4-dihydroxy-5-methoxyphenyl)-N,N-dimethyl-1-(3-methyloxetan-3-yl)-1H-benzo[d]imidazole-6-sulfonamide], the IC50 lay in the range of 10 to 100 µM. As for `COc1cc(-c2nc3ccc(C(=O)NC4CCC(F)(F)CC4)cc3n2C2(C)COC2)c(F)c(O)c1O` [Example 256, N-(4,4-difluorocyclohexyl)-2-(2-fluoro-3,4-dihydroxy-5-methoxyphenyl)-1-(3-methyloxetan-3-yl)-1H-benzo[d]imidazole-6-carboxamide], the figure is not above 0.1 µM; as for `COc1cc(-c2nc3cc(N4CCC4)ccc3n2C2CCC2)c(C)c(O)c1O` [Example 193], 0.1 to 1 µM; as for `COc1cc(-c2nc3cc(N4CCN(C(=O)c5ccccc5C(=O)O)CC4)ccc3[nH]2)cc(O)c1O` [Example 155, 2-(4-(2-(3,4-dihydroxy-5-methoxyphenyl)-1H-benzo[d]imidazol-5-yl)piperazine-1-carbonyl)benzoic acid], 10 to 100 µM. For `COc1cc(-c2nc3cccc(NC(C)=O)c3n2C2(C)COC2)c(F)c(O)c1O` [Example 210, N-[2-(2-fluoro-3,4-dihydroxy-5-methoxyphenyl)-1-(3-methyloxetan-3-yl)-1H-1,3-benzodiazol-7-yl]acetamide] the value was 0.1 to 1 µM; for `COc1cc(-c2cc3ccccc3n2C2(C)COC2)c(C)c(O)c1O` [Example 220], 0.1 to 1 µM. As for `CNC(=O)c1cccc2c1nc(-c1cc(OC)c(O)c(O)c1F)n2C1(C)COC1` [Example 214, 2-(2-fluoro-3,4-dihydroxy-5-methoxyphenyl)-N-methyl-1-(3-methyloxetan-3-yl)-1H-1,3-benzodiazole-4-carboxamide], the IC50 was 0.1 to 1 µM. As for `COc1cc(-c2nc3cc(N4CCN(C(=O)c5ccncc5)CC4)ccc3[nH]2)cc(O)c1O` [Example 96, (4-(2-(3,4-dihydroxy-5-methoxyphenyl)-1H-benzo[d]imidazol-5-yl)piperazin-1-yl)(pyridin-4-yl)methanone], the figure is 10 to 100 µM. On to `O=C(O)c1ccc(-c2nc3ccncc3[nH]2)c(F)c1O` [Example 147, 3-fluoro-2-hydroxy-4-(3H-imidazo[4,5-c]pyridin-2-yl)benzoic acid], for which the IC50 is more than 100 µM. For `COc1cc(-c2nc3ccc(N4CCC4)cc3n2C2COC2)c(F)c(O)c1O` [Example 288, 4-(6-(azetidin-1-yl)-1-(oxetan-3-yl)-1H-benzo[d]imidazol-2-yl)-3-fluoro-6-methoxybenzene-1,2-diol], the IC50 was 1 to 10 µM. In the case of `COc1cc(-c2nc3cc(N4CCN(c5cccnc5)CC4)ccc3[nH]2)cc(O)c1O` [Example 62, 3-methoxy-5-(5-(4-(pyridin-3-yl)piperazin-1-yl)-1H-benzo[d]imidazol-2-yl)benzene-1,2-diol], the IC50 was 1 to 10 µM. In the case of `COc1cc(-c2nc3ccc(C(=O)Nc4ccon4)cc3n2C2(C)COC2)c(F)c(O)c1O` [Example 258, 2-(2-fluoro-3,4-dihydroxy-5-methoxyphenyl)-1-(3-methyloxetan-3-yl)-N-(1,2-oxazol-3-yl)-1H-1,3-benzodiazole-6-carboxamide], the IC50 is not above 0.1 µM. For `COc1cc(-c2nc3cc(N4CCN(c5ccncc5)CC4)ccc3[nH]2)cc(O)c1O` [Example 131, 3-methoxy-5-(5-(4-(pyridin-4-yl)piperazin-1-yl)-1H-benzo[d]imidazol-2-yl)benzene-1,2-diol] the value was 10 to 100 µM; for `COc1cc(-c2nc3cc(N4CCN(C(=O)c5cccc(C(C)(C)C)c5)CC4)ccc3[nH]2)cc(O)c1O` [Example 134, (3-(tert-butyl)phenyl)(4-(2-(3,4-dihydroxy-5-methoxyphenyl)-1H-benzo[d]imidazol-5-yl)piperazin-1-yl)methanone], more than 100 µM.

For the compound `CNC(=O)c1ccc2nc(-c3cc(OC)c(O)c(O)c3C)n(C3(C)COC3)c2c1` [Example 213, 2-(3,4-dihydroxy-5-methoxy-2-methylphenyl)-N-methyl-1-(3-methyloxetan-3-yl)-1H-1,3-benzodiazole-6-carboxamide], the IC50 was not above 0.1 µM. As to `COc1cc(-c2nc3c(C)ncnc3[nH]2)cc(O)c1O` [Example 41, 3-methoxy-5-(6-methyl-9H-purin-8-yl)benzene-1,2-diol], the IC50 is more than 100 µM.

Turning to `COc1cc(-c2nc3c(C)cccc3[nH]2)cc(O)c1O` [Example 21, 3-methoxy-5-(4-methyl-1H-benzo[d]imidazol-2-yl)benzene-1,2-diol], the IC50 was more than 100 µM. As for `COc1c(C)c(-c2nc3ccccc3[nH]2)cc(O)c1O` [Example 16, 5-(1H-benzo[d]imidazol-2-yl)-3-methoxy-4-methylbenzene-1,2-diol], the figure is more than 100 µM.

In the case of `COc1ccc2c(c1)nc(-c1cc(OC)c(O)c(O)c1C)n2C1CCC1` [Example 176, 4-(1-cyclobutyl-5-methoxy-1H-1,3-benzodiazol-2-yl)-6-methoxy-3-methylbenzene-1,2-diol], the IC50 was in the range of 0.1 to 1 µM. For `COc1cc(-c2nc3cc(NC(C)=O)ncc3n2C2(C)COC2)c(F)c(O)c1O` [Example 237, N-(2-(2-fluoro-3,4-dihydroxy-5-methoxyphenyl)-3-(3-methyloxetan-3-yl)-3H-imidazo[4,5-c]pyridin-6-yl)acetamide] the value was not above 0.1 µM; for `COc1cc(-c2nc3cc(N4CCN(C(=O)c5ccccc5)CC4)ccc3[nH]2)c(C(F)(F)F)c(O)c1O` [Example 30, (4-(2-(3,4-dihydroxy-5-methoxy-2-(trifluoromethyl)phenyl)-1H-benzo[d]imidazol-5-yl)piperazin-1-yl)(phenyl)methanone], 10 to 100 µM; for `COc1cc(-c2nc3cc(N4CCC(N5CCCCC5)CC4)ccc3[nH]2)cc(O)c1O` [Example 160, 5-(5-([1,4′-bipiperidin]-1′-yl)-1H-benzo[d]imidazol-2-yl)-3-methoxybenzene-1,2-diol], more than 100 µM. Consider `O=C(O)c1cc(-c2nc3ccncc3[nH]2)ccc1O` [Example 71, 2-hydroxy-5-(3H-imidazo[4,5-c]pyridin-2-yl)benzoic acid], for which the IC50 was 10 to 100 µM. For `COc1cc(-c2nc3cc(N4CCN(C(=O)c5ccccc5-c5ccccc5)CC4)ccc3[nH]2)cc(O)c1O` [Example 105, [1,1′-biphenyl]-2-yl(4-(2-(3,4-dihydroxy-5-methoxyphenyl)-1H-benzo[d]imidazol-5-yl)piperazin-1-yl)methanone] the value was more than 100 µM.

These data come from patent publication US20230234943A1, “TREX1 INHIBITORS AND USES THEREOF” (Tempest Therapeutics, Inc., priority 2020, published 2023).
